{"source": "patent US9150530B2", "about": "“Esters of 4, 9-dihydroxy-naphtho [2, 3-b] furans for disease therapies” (Zhoushan Haizhongzhou Xinsheng Pharmaceuticals Co., Ltd., priority 2011, dated 2015)", "key": {"[1]": {"test": "Metabolism in biological fluid (human whole blood, cancer cell lysate, liver microsomes, mouse oral uptake), HPLC", "assay_type": "in vitro ADME", "conditions": "liver microsomes or mouse oral uptake system, 20 μM, 37° C.", "experimental": "Second, a major metabolite found after incubation of compound I, III, IV, VI or XIII in biological fluid, such as human whole blood, or cancer cell lysate, or liver microsomes, or mouse oral uptake system, is compound XII (FIG. 3). Similarly, a major metabolite found after incubation of compound V, VII or XIV in biological fluid is 2-(1-hydroxy-n-propyl)-naphtho[2,3-b]furan-4,9-dione (data not shown). Reduction of the position 2 substituent carbonyl group is part of quinone redox reaction as evidenced by the β-lapachone effect on the formation of compound XII in the compound XIII incubation mixture of human whole blood (part D of FIG. 3). The possible reaction mechanism is proposed as shown in scheme 7, in which the two electron reduction could be NQ01 catalyzed reduction or two successive cytochrome b5 reductase or p450 reductase catalyzed reaction. As substrate of these enzymes, β-lapachone could compete for the two electron or single electron reaction and thus reduced formation of the metabolism product.\nCrystalline or amorphous solid of compound was mixed with excipient and suspended in 0.5% carboxymethylcellulose (CMC) solution in a mortar. Then the mixture was orally administered into ICR mouse at the predetermined dosage. At the predetermined time point, blood was drawn from the mouse and stored in the vial containing heparin. The blood samples were centrifuged at 6,000 rpm for 10 min, and plasmas were separated. To each plasma sample, 9 times volume of acetonitrile/methyl trifluoromethanesulfonate (1000:1) or acetonitrile/concentrated HCl (1000:1) was added. The resulting mixtures were vortexed and incubated in dry ice for 30 minutes or in −20° C. freezer for 3 hours, then centrifuged, and supernatants were separated for HPLC analysis using gradient B.\nThe biological systems for in vitro metabolism study include: human whole blood stabilized with sodium citrate; cancer cell lysate (obtained using freeze-thaw method, 10 mg/ml in protein concentration for use); liver microsomes with NADPH generation system (prepared according to the protocol provided by iPhase Pharma, Beijing, China);\n10 mM of a compound of formula I or its analog or compound XIII in DMSO (however, compound VI was in DMF) was added into the biological system to a final concentration of 20 μM. The mixtures were incubated at 37° C. for predetermined time. To each sample, then 9 times volume of acetonitrile was added. The resulting mixtures were vortexed and incubated in dry ice for 30 minutes or in −20° C. freezer for 3 hours, then centrifuged, and supernatants were separated for HPLC analysis using gradient B."}, "[2]": {"test": "Human plasma incubation, HPLC analysis of degradation products", "assay_type": "in vitro ADME", "conditions": "20 μM in human plasma, 37° C., 2 hours", "experimental": "The compounds of formula I were incubated in human plasma at 37° C. for 2 hours, and then the mixtures were treated with acetonitrile to remove protein and the resulting supernatants were analyzed by HPLC (FIG. 2). […] Without wishing to be bound by a particular theory, it is believed that, although not detected due to instability in a protein-free environment, the direct hydrolysis product of a compound of formula I, 4,9-dihydroxy-naphtho[2,3-b]furan, and its partially oxidized product semihydroquinone (shown in scheme 6) co-exist in vivo and play important biological roles.\nHPLC column: Waters Sunfire C18, 250×4.60 mm 5 micron; Mobile phase: buffer A, 90% 5 mM potassium phosphate buffer, pH 6.8, 10% acetonitrile; buffer B, 15% 5 mM potassium phosphate buffer, pH 6.8, 85% acetonitrile; Detector: Waters 2998 Photodiode Array Detector.\nGradient B: 0-3 min, 50% buffer B, 3-5 min, 50%-100% buffer B, 5-18 min, 100% buffer B, 18-22 min, 100%-50% buffer B, 22-25 min, […]; flow rate, 1 ml/min. Analysis of the 4,9-dihydroxy-naphtho[2,3-b]furan compounds (FIG. 1)\n10 mM of a compound of formula I or its analog in DMSO (however, compound VI was in DMF) was diluted with human plasma to 20 μM, and the resulting mixtures were incubated at 37° C. for 2 hours. To plasma sample, 9 times volume of acetonitrile was added. The resulting mixtures were vortexed and incubated in dry ice for 30 minutes or in −20° C. freezer for 3 hours, then centrifuged, and supernatant was used for HPLC analysis using gradient B."}, "A549": {"system": "A549", "test": "Cell viability determination (MTT), A549", "assay_type": "cell-based", "conditions": "Homo sapiens, A549, lung cancer, 48 hour incubation, read-out: Drug concentrations for 50% cell viability (IC50)", "description": "(§1) Cell Culture: A549, DLD1, SW480, LOVO, HT-29, Hela, U-20S, MES-SA, SK-MEL-28, Panc-1, DU-145, CNE, U251, Eca-109, MGC80-3, QGY-7701, BEL-7404, PLC/PRF/5, Huh-7, and SGC-7901 cells were maintained in Dulbecco's Modified Eagle Medium (DMEM) (imported from Invitrogen, Carlsbad, Calif., USA) supplemented with 10% fetal bovine serum (FBS) (Si Ji Qing, Hangzhou, China) and 1% penicillin/streptomycin/amphotericin B (imported from Invitrogen, Carlsbad, Calif., USA).\n(§2) Cell Viability Determination: Popular MTT method (Archives of Biochemistry and Biophysics, 1993, 303: 474-482) was used to screen the in vitro effects of the invented drugs. Briefly, 5000 to 10000 cells were inoculated per well in a 96-well plate. After overnight incubation, drug was added to the wells at final concentration of 10 μM, […], 2.5 μM, 1.25 μM, or 1 μM, 0.75 μM, 0.5 μM and 0.25 μM in complete culture medium. Each dose level covered 4 equivalent wells. After 48 hour incubation, one tenth volume of 5 mg/mL MTT (thiazolyl blue tetrazolium bromide, Sigma-Aldrich) stock solution was added, and incubation was continued for 2 hours. Then medium was removed and 100 μL of isopropanol solution comprising 86% isopropanol, 4% aqueous 1 N HCl and 10% aqueous SDS solution (10% in concentration) was added. The absorbance of each well at 570 nm wavelength was measured by a micro-plate reader after gentle shaking for 20 minutes. Drug concentrations of 50% cell viability (IC50) were calculated by LOGIT method."}, "Hela": {"system": "Hela", "test": "Cell viability determination (MTT), Hela", "assay_type": "cell-based", "conditions": "Homo sapiens, cervical cancer, 48 hour incubation, read-out: Drug concentrations for 50% cell viability (IC50)", "description": "as §1, §2"}, "U-20S": {"system": "U-20S", "test": "Cell viability determination (MTT), U-20S", "assay_type": "cell-based", "conditions": "osteosarcoma, 48 hour incubation, read-out: Drug concentrations for 50% cell viability (IC50)", "description": "as §1, §2"}, "SK-MEL-28": {"system": "SK-MEL-28", "test": "Cell viability determination (MTT), SK-MEL-28", "assay_type": "cell-based", "conditions": "Homo sapiens, SK-MEL-28, malignant melanoma, 48 hour incubation, read-out: Drug concentrations for 50% cell viability (IC50)", "description": "as §1, §2"}, "U251": {"system": "U251", "test": "Cell viability determination (MTT), U251", "assay_type": "cell-based", "conditions": "Homo sapiens, U-251, U251, glioma, 48 hour incubation, read-out: Drug concentrations for 50% cell viability (IC50)", "description": "as §1, §2"}, "DU-145": {"system": "DU-145", "test": "Cell viability determination (MTT), DU-145", "assay_type": "cell-based", "conditions": "Homo sapiens, DU-145, prostate cancer, 48 hour incubation, read-out: Drug concentrations for 50% cell viability (IC50)", "description": "as §1, §2"}}}
{"molecule": "CC(=O)Oc1c2ccccc2c(OC(=O)CNC(=O)OC(C)(C)C)c2oc(C(C)=O)cc12", "note": "[compound IV, 2-acetyl-4-acetoxy-9-[(tert-butoxycarbonyl)amino]acetoxy-naphtho[2,3-b]furan]", "values": [{"measurement": "Major metabolite found after incubation in biological fluid", "setting": "[1]", "value": "compound XII"}, {"measurement": "Degradation / detectable products after incubation in human plasma", "setting": "[2]", "value": "the detectable products were compound XIII and partially degraded products"}, {"measurement": "IC50", "setting": "A549", "value": 600, "unit": "nM"}, {"measurement": "IC50", "setting": "Hela", "value": 860, "unit": "nM"}, {"measurement": "IC50", "setting": "U-20S", "value": "750 to 1000", "unit": "nM"}, {"measurement": "IC50", "setting": "SK-MEL-28", "value": "250 to 500", "unit": "nM"}, {"measurement": "IC50", "setting": "U251", "value": 1140, "unit": "nM"}, {"measurement": "IC50", "setting": "DU-145", "value": "250 to 500", "unit": "nM"}]}
